{"source": "patent US8952024B2", "about": "“Herbicidal pyrimidone derivatives” (E I du Pont de Nemours and Company, priority 2009, dated 2015)", "experiment_in_all_cases": "Test C plant response", "format_in_all_cases": "in vivo", "settings_in_all_cases": "Postemergence, scale 0 to 100", "key": {"[1]": {"test_system": "field poppy (Papaver rhoeas)", "summary_of_the_method": "(§1)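 Visual response scores run from 0 (no effect) to 100 (complete control), assigned 14 days after treatment by comparison with untreated plants. Compounds were applied in a surfactant-containing non-phytotoxic solvent mixture.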"}, "[2]": {"test_system": "winter barley (Hordeum vulgare)", "summary_of_the_method": "as §1"}, "[3]": {"test_system": "buckwheat (wild buckwheat, Polygonum convolvulus)", "summary_of_the_method": "as §1"}, "[4]": {"test_system": "windgrass (Apera spica-venti)", "summary_of_the_method": "as §1"}, "[5]": {"test_system": "chickweed (common chickweed, Stellaria media)", "summary_of_the_method": "as §1"}}, "data": [{"smiles": "Cc1ccc(-n2c(-c3ccccc3)ncc(C(=O)C3=C(O)CCCC3=O)c2=O)cc1", "note": "[Compound 8]", "values": [{"measurement": "Plant response rating: Field Poppy", "setting": "[1]; 31 g ai/ha", "value": 20}, {"measurement": "Plant response rating: Field Poppy", "setting": "[1]; 16 g ai/ha", "value": 0}, {"measurement": "Plant response rating: Field Poppy", "setting": "[1]; 62 g ai/ha", "value": 40}, {"measurement": "Plant response rating: Field Poppy", "setting": "[1]; 125 g ai/ha", "value": 60}, {"measurement": "Plant response rating: Barley, Winter", "setting": "[2]; 31 g ai/ha", "value": 20}, {"measurement": "Plant response rating: Barley, Winter", "setting": "[2]; 16 g ai/ha", "value": 0}, {"measurement": "Plant response rating: Barley, Winter", "setting": "[2]; 62 g ai/ha", "value": 20}, {"measurement": "Plant response rating: Barley, Winter", "setting": "[2]; 125 g ai/ha", "value": 40}, {"measurement": "Plant response rating: Buckwheat, Wild", "setting": "[3]; 31 g ai/ha", "value": 65}, {"measurement": "Plant response rating: Buckwheat, Wild", "setting": "[3]; 16 g ai/ha", "value": 65}, {"measurement": "Plant response rating: Buckwheat, Wild", "setting": "[3]; 62 g ai/ha", "value": 65}, {"measurement": "Plant response rating: Buckwheat, Wild", "setting": "[3]; 125 g ai/ha", "value": 65}, {"measurement": "Plant response rating: Windgrass", "setting": "[4]; 31 g ai/ha", "value": 10}, {"measurement": "Plant response rating: Windgrass", "setting": "[4]; 16 g ai/ha", "value": 0}, {"measurement": "Plant response rating: Windgrass", "setting": "[4]; 62 g ai/ha", "value": 20}, {"measurement": "Plant response rating: Windgrass", "setting": "[4]; 125 g ai/ha", "value": 60}, {"measurement": "Plant response rating: Chickweed", "setting": "[5]; 31 g ai/ha", "value": 95}, {"measurement": "Plant response rating: Chickweed", "setting": "[5]; 16 g ai/ha", "value": 95}, {"measurement": "Plant response rating: Chickweed", "setting": "[5]; 62 g ai/ha", "value": 95}, {"measurement": "Plant response rating: Chickweed", "setting": "[5]; 125 g ai/ha", "value": 98}]}]}
